Measurements taken from PubChem BioAssay (NCI).
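Five compound concentrations were applied to cells in 96-well plates for 48 hours; endpoints were derived by simple linear interpolation of the resulting dose-response curve. GI50: concentration for 50% inhibition of growth. TGI denotes the concentration required for complete inhibition of growth.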

What follows are compounds tested on BT-549 breast (assay: growth of human tumour cells (NCI), 48 h).
Work on `N#Cc1c(-c2ccccc2)[nH]c2ccccc2c1=O` yielded a TGI of 69.8 µM. With `CC1=NC(=Cc2ccc(O)cc2)C(=O)N1n1c(-c2ccccc2)nc2ccccc2c1=O` the TGI was over 100 µM. `COc1ccc2c(c1)CN1C(=N2)CSC1c1cc([N+](=O)[O-])ccc1Cl` (stereo not drawn) showed a TGI of over 100 µM. With `NS(=O)(=O)c1ccc(-n2c(-c3cccs3)nc3ccc(I)cc3c2=O)cc1` the TGI was 37.9 µM. Work on `Cc1cccc2c1Oc1cc(Cl)ccc1C2NC(=O)CCN1CCOCC1` (stereo not drawn) yielded a TGI of over 100 µM.

The compounds below were run on RXF 393 renal (assay: growth of human tumour cells (NCI), 48 h).
Work on `N#Cc1c(-c2ccccc2)[nH]c2ccccc2c1=O` yielded a TGI of over 100 µM. For `O/N=C\c1c(O)ccc2ccccc12`, the TGI was over 100 µM. For `CCOC(=O)c1csc(NC(=O)C(C)N2CCCCC2)n1` (stereo not drawn), the TGI was over 100 µM. Compound `COc1ccc2c(c1)CN1C(=N2)CSC1c1cc([N+](=O)[O-])ccc1Cl` (stereo not drawn) has a TGI of over 100 µM. Work on `N#Cc1sc2nc(/C=C3/C=CC=CC3=O)c(O)n2c1N` yielded a TGI of over 100 µM. For `NS(=O)(=O)c1ccc(-n2c(-c3cccs3)nc3ccc(I)cc3c2=O)cc1`, the TGI was 88.9 µM.

What follows are compounds tested on RPMI-8226 leukemia (assay: growth of human tumour cells (NCI), 48 h).
In the case of `O/N=C\c1c(O)ccc2ccccc12`, the TGI is reported as over 100 µM. `CCOC(=O)c1csc(NC(=O)C(C)N2CCCCC2)n1` (stereo not drawn) showed a TGI of over 100 µM. Compound `CC1=NC(=Cc2ccc(O)cc2)C(=O)N1n1c(-c2ccccc2)nc2ccccc2c1=O` has a TGI of over 100 µM. Work on `COc1ccc2c(c1)CN1C(=N2)CSC1c1cc([N+](=O)[O-])ccc1Cl` (stereo not drawn) yielded a TGI of 72.3 µM. `N#Cc1sc2nc(/C=C3/C=CC=CC3=O)c(O)n2c1N` was tested, and the TGI was 81.2 µM. `NS(=O)(=O)c1ccc(-n2c(-c3cccs3)nc3ccc(I)cc3c2=O)cc1` gave a GI50 of 25.3 µM and a TGI of 62.1 µM.

What follows are compounds tested on LOX IMVI melanoma (assay: growth of human tumour cells (NCI), 48 h).
For `N#Cc1c(-c2ccccc2)[nH]c2ccccc2c1=O`, the TGI was over 100 µM. With `O/N=C\c1c(O)ccc2ccccc12` the TGI was over 100 µM. Work on `CCOC(=O)c1csc(NC(=O)C(C)N2CCCCC2)n1` (stereo not drawn) yielded a TGI of over 100 µM. `CC1=NC(=Cc2ccc(O)cc2)C(=O)N1n1c(-c2ccccc2)nc2ccccc2c1=O` showed a TGI of over 100 µM. `COc1ccc2c(c1)CN1C(=N2)CSC1c1cc([N+](=O)[O-])ccc1Cl` (stereo not drawn) showed a TGI of over 100 µM. Work on `N#Cc1sc2nc(/C=C3/C=CC=CC3=O)c(O)n2c1N` yielded a TGI of over 100 µM. `NS(=O)(=O)c1ccc(-n2c(-c3cccs3)nc3ccc(I)cc3c2=O)cc1` gave a TGI of 37 µM. `Cc1cccc2c1Oc1cc(Cl)ccc1C2NC(=O)CCN1CCOCC1` (stereo not drawn) was tested, and the TGI was over 100 µM.

What follows are compounds tested on SW-620 colon (assay: growth of human tumour cells (NCI), 48 h).
In the case of `N#Cc1c(-c2ccccc2)[nH]c2ccccc2c1=O`, the TGI is reported as over 100 µM. For `O/N=C\c1c(O)ccc2ccccc12`, the TGI was over 100 µM. With `CCOC(=O)c1csc(NC(=O)C(C)N2CCCCC2)n1` (stereo not drawn) the TGI was over 100 µM. `CC1=NC(=Cc2ccc(O)cc2)C(=O)N1n1c(-c2ccccc2)nc2ccccc2c1=O` gave a TGI of over 100 µM. For `COc1ccc2c(c1)CN1C(=N2)CSC1c1cc([N+](=O)[O-])ccc1Cl` (stereo not drawn), the TGI was over 100 µM. `N#Cc1sc2nc(/C=C3/C=CC=CC3=O)c(O)n2c1N` gave a TGI of over 100 µM. `NS(=O)(=O)c1ccc(-n2c(-c3cccs3)nc3ccc(I)cc3c2=O)cc1` showed a TGI of over 100 µM. Work on `Cc1cccc2c1Oc1cc(Cl)ccc1C2NC(=O)CCN1CCOCC1` (stereo not drawn) yielded a TGI of over 100 µM.

Each compound was assayed on SK-MEL-2 melanoma (assay: growth of human tumour cells (NCI), 48 h).
Work on `N#Cc1c(-c2ccccc2)[nH]c2ccccc2c1=O` yielded a TGI of over 100 µM. Compound `CCOC(=O)c1csc(NC(=O)C(C)N2CCCCC2)n1` (stereo not drawn) has a TGI of over 100 µM. `COc1ccc2c(c1)CN1C(=N2)CSC1c1cc([N+](=O)[O-])ccc1Cl` (stereo not drawn) gave a TGI of over 100 µM. In the case of `N#Cc1sc2nc(/C=C3/C=CC=CC3=O)c(O)n2c1N`, the TGI is reported as over 100 µM. With `NS(=O)(=O)c1ccc(-n2c(-c3cccs3)nc3ccc(I)cc3c2=O)cc1` the GI50 was 21.8 µM and the TGI was 47.6 µM.

These compounds were tested on NCI-H522 lung (assay: growth of human tumour cells (NCI), 48 h).
In the case of `CC1=NC(=Cc2ccc(O)cc2)C(=O)N1n1c(-c2ccccc2)nc2ccccc2c1=O`, the TGI is reported as over 100 µM. `COc1ccc2c(c1)CN1C(=N2)CSC1c1cc([N+](=O)[O-])ccc1Cl` (stereo not drawn) was tested, and the TGI was over 100 µM. `N#Cc1sc2nc(/C=C3/C=CC=CC3=O)c(O)n2c1N` showed a TGI of over 100 µM. With `NS(=O)(=O)c1ccc(-n2c(-c3cccs3)nc3ccc(I)cc3c2=O)cc1` the TGI was 39.1 µM. For `Cc1cccc2c1Oc1cc(Cl)ccc1C2NC(=O)CCN1CCOCC1` (stereo not drawn), the TGI was over 100 µM.

Each compound was assayed on NCI-H460 lung (assay: growth of human tumour cells (NCI), 48 h).
`N#Cc1c(-c2ccccc2)[nH]c2ccccc2c1=O` was tested, and the TGI was over 100 µM. `O/N=C\c1c(O)ccc2ccccc12` showed a TGI of over 100 µM. For `CCOC(=O)c1csc(NC(=O)C(C)N2CCCCC2)n1` (stereo not drawn), the TGI was over 100 µM. For `CC1=NC(=Cc2ccc(O)cc2)C(=O)N1n1c(-c2ccccc2)nc2ccccc2c1=O`, the TGI was over 100 µM. Work on `COc1ccc2c(c1)CN1C(=N2)CSC1c1cc([N+](=O)[O-])ccc1Cl` (stereo not drawn) yielded a TGI of over 100 µM. `NS(=O)(=O)c1ccc(-n2c(-c3cccs3)nc3ccc(I)cc3c2=O)cc1` showed a TGI of 83 µM. With `Cc1cccc2c1Oc1cc(Cl)ccc1C2NC(=O)CCN1CCOCC1` (stereo not drawn) the TGI was over 100 µM.

Each compound was assayed on K-562 leukemia (assay: growth of human tumour cells (NCI), 48 h).
Work on `N#Cc1c(-c2ccccc2)[nH]c2ccccc2c1=O` yielded a TGI of over 100 µM.
